Experimental data reported in publication PMC12645437, “Orthogonal IMiD-Degron Pairs Induce Selective Protein Degradation in Cells” (ACS Chemical Biology, 2025).
Where “and” joins values, the source holds several entries; their conditions need not be identical. Equal values may be shown once.

Columns and labels:
[1] = biological target: T1, WT IKZF3-derived degron fused to EGFP (Homo sapiens, UniProt Q96SW2+Q9UKT9); test: Ratiometric EGFP:mCherry flow cytometry degradation assay, 18 h; type: cell-based; conditions: Jurkat
T1 construct: Plasmid: pLVX-Sprout-IKZF3 130-189aa (WT); expressed in transfected cells
T1 sequence (Q9UKT9 130-189): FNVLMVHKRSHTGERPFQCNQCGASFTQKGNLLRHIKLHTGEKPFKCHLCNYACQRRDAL
T1 sequence (Q96SW2 whole entry, the tested form may be a part): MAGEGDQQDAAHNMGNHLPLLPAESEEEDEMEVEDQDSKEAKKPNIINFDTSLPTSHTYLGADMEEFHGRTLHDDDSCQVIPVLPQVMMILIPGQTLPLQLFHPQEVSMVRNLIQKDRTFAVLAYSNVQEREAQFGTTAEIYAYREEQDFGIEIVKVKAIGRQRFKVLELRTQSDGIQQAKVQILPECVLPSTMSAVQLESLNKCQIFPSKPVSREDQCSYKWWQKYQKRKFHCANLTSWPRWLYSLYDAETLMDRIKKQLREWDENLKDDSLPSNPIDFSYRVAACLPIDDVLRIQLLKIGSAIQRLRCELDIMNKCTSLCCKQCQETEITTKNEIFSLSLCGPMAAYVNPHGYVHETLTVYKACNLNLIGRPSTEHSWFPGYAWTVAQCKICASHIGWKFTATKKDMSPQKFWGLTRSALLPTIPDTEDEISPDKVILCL
T1 sequence (Q16531 whole entry partner, the tested form may be a part): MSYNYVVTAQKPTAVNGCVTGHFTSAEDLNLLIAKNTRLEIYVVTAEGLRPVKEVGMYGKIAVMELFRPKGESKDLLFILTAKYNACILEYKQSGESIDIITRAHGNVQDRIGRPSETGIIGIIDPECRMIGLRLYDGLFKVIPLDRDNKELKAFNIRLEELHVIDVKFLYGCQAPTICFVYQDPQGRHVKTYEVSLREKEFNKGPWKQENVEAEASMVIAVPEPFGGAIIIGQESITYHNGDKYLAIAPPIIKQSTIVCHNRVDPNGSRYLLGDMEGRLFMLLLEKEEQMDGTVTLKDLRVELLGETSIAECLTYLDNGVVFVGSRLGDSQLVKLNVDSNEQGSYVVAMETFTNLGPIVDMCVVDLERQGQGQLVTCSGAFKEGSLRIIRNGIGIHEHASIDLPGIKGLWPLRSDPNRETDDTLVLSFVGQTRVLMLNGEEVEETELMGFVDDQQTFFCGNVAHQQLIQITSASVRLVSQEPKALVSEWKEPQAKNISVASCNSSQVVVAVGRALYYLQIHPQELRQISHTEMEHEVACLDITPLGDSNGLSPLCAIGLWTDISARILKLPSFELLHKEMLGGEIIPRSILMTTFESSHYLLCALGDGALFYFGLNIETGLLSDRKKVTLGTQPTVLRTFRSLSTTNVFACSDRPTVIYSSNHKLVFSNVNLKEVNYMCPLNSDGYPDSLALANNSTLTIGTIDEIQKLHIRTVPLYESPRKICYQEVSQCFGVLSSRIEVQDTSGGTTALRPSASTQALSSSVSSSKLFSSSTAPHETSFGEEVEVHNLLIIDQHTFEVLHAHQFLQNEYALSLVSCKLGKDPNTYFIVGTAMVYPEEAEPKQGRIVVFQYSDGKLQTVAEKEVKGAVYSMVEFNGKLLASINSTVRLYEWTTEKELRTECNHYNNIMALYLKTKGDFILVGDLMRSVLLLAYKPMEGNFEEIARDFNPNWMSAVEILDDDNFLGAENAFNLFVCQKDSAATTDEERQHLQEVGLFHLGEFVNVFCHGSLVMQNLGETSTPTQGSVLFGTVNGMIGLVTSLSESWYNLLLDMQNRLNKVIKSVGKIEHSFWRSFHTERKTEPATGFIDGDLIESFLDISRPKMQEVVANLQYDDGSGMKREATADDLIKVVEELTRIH

[2] = biological target: T2, Q147A mutant degron (ANQS) fused to EGFP (Homo sapiens, UniProt Q96SW2+Q9UKT9, Q147A); test: as above; type: cell-based
T2 construct: pLVX-Sprout-IKZF3 130-189aa Q147A (ANQS); expressed in transfected cells
T2 sequence (Q9UKT9 130-189 Q147A): as the sequence (Q9UKT9 130-189) above, with Q18A counted along it
T2 sequence (Q96SW2 whole entry, the tested form may be a part): as the sequence (Q96SW2 whole entry, the tested form may be a part) above
T2 sequence (Q16531 whole entry partner, the tested form may be a part): as the sequence (Q16531 whole entry partner, the tested form may be a part) above

[3] = test system: library of 8380 IKZF3 degrons fused to EGFP in Jurkat cells; test: Pooled mutant ZF degron library screen (FACS EGFPlow vs EGFP+, NGS), 18 h; type: cell-based, human;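 on logFC: Log2 fold change of EGFPlow over EGFP+ representation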
[4] = biological target: T3, endogenous IKZF1 in Jurkat cells (Homo sapiens, UniProt Q13422+Q96SW2); test: Endogenous IKZF1 immunostaining, fluorescent antibody flow cytometry assay; type: cell-based; conditions: 18 h
T3 construct: endogenous in cells; host or cells: Jurkat (untransduced for immunostaining; WEIS-EGFP-transduced for the blot)
T3 sequence (Q13422 whole entry): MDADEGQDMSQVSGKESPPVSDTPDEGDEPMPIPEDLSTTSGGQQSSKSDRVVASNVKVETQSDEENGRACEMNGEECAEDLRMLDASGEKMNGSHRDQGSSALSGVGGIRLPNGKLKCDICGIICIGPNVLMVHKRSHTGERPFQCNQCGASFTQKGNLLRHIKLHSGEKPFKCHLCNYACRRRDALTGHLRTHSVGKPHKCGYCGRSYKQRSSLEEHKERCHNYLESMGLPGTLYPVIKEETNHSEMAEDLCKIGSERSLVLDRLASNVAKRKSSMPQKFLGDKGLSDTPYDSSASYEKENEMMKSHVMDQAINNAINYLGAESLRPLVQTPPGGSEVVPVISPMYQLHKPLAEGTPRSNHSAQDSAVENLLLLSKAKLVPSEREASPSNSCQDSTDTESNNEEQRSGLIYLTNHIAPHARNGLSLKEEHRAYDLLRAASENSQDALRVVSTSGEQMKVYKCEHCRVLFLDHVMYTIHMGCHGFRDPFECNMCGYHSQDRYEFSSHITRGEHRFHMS
T3 sequence (Q96SW2 whole entry): as the sequence (Q96SW2 whole entry, the tested form may be a part) above
T3 sequence (Q16531 whole entry partner): as the sequence (Q16531 whole entry partner, the tested form may be a part) above
Protocol: As we sought to screen a large number of mutant ZF degrons with different mutation combinations, we pursued a library screen approach similar to that previously employed by Sievers et al. and Jan et al. , Only the most promising compounds from the original set of 36 were used for the library screen. To help narrow the candidates, a subset of compounds was tested for endogenous IKZF1 degradation in Jurkat cells using a fluorescent antibody flow cytometry assay (Figure S5). […] Thalidomide and lenalidomide were also included as controls.
Endogenous IKZF1 Immunostaining
37 °C and 5% CO2. Following incubation, cells were stained with LIVE/DEAD™ Fixable Aqua Dead Cell Stain (Thermo) diluted 1000X in PBS for 30 min at room temperature and then incubated with Human TruStain FcX block (Biolegend) diluted 40X in PBS + 1% FBS (Gibco) for 10 min at room temperature. Intranuclear staining of IKZF1 was carried out using the Transcription Factor Buffer Set (BD Bioscience) according to the manufacturer's protocol and staining with IKZF1 AF488 antibody (clone R32-1149, BD Bioscience) diluted 40X for 30 minutes at room temperature. Cells were acquired on a Cytoflex S (Beckman Coulter) and data analysed using FlowJo 10.8.1 9 (BD).

[5] = biological target: T4, endogenous IKZF3 in Jurkat cells (Homo sapiens, UniProt Q96SW2+Q9UKT9); test: Western blot for endogenous IKZF3; type: cell-based; conditions: 18 h
T4 construct: endogenous in cells; host or cells: Jurkat (transduced with ZF-EGFP constructs, or untransduced)
T4 sequence (Q9UKT9 whole entry): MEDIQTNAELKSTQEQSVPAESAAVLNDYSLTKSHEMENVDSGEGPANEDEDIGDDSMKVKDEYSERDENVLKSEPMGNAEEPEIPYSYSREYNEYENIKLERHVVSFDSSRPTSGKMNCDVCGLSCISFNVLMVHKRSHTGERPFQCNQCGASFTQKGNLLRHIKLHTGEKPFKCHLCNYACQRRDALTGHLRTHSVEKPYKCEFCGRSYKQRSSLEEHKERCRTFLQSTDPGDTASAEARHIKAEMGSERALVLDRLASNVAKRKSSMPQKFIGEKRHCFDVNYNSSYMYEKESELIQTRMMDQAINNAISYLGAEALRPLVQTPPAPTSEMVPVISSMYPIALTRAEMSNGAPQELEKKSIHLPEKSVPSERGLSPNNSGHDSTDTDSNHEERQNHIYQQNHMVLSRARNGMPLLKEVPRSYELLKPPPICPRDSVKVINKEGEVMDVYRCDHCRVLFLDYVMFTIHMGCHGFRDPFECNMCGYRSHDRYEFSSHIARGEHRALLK
T4 sequence (Q96SW2 whole entry): as the sequence (Q96SW2 whole entry, the tested form may be a part) above
T4 sequence (Q16531 whole entry partner): as the sequence (Q16531 whole entry partner, the tested form may be a part) above

[6] = biological target: HEIP mutant ZF degron fused to EGFP (Homo sapiens, UniProt Q96SW2+Q9UKT9, N149E/Q147H/Q150I/S154P); test: Ratiometric EGFP:mCherry flow cytometry degradation assay, 18 h
Chain of HEIP mutant ZF degron fused to EGFP (Q9UKT9 130-189 Q147H/N149E/Q150I/S154P): as the sequence (Q9UKT9 130-189) above, with Q18H, N20E, Q21I, S25P counted along it
Chain of HEIP mutant ZF degron fused to EGFP (Q96SW2 whole entry, the tested form may be a part): as the sequence (Q96SW2 whole entry, the tested form may be a part) above
Chain of HEIP mutant ZF degron fused to EGFP (Q16531 whole entry partner, the tested form may be a part): as the sequence (Q16531 whole entry partner, the tested form may be a part) above

In the case of CC(C)(C)c1ccc2c(c1)C(=O)N(C1CCC(=O)NC1=O)C2=O (stereo not shown) [Compound 19], the “Degradation pDC50 WT” value ([1]; Fig 2B) is reported as 6.05, the DC50 ([1]; WT degron, Fig 5A) is reported as 759 nM and the pDC50 ([1]; WT degron, Fig 5A) is reported as 6.12. For the same compound, the DC50 ([2]; ANQS, Jurkat, 18 h, Fig 5A) was 537 nM, the pDC50 ([2]; ANQS, Jurkat, 18 h, Fig 5A) was 6.27 and the “Selectivity (WT/mutant)” value ([2]; DC50(WT)/DC50(ANQS), Fig 5A) was 1.4. For the same compound, the Dmax ([2]; Jurkat, 18 h, Fig 2B, read-out: DMax Q147A/%) was 87%, the Log2FC ([3]; WT degron, residues 146/147/149/150/152/153/154/155/167: FQNQGASFL) was -1.8291 and -1.83 and the logFC ([3]; degron residues 146/147/149/150/152/153/154/155/167: FADIGAAFL) was 3.42. The logFC ([3]; degron residues 146/147/149/150/152/153/154/155/167: FADIGACFL) was 2.8476, the logFC ([3]; degron residues 146/147/149/150/152/153/154/155/167: FADIGADFL) was 0.3339 and the logFC ([3]; degron residues 146/147/149/150/152/153/154/155/167: FADIGAEFL) was 0.9661. For the same compound, the Log2FC ([3]; degron residues 146/147/149/150/152/153/154/155/167: FAEIGAAFL) was 3.8965, the Log2FC ([3]; degron residues 146/147/149/150/152/153/154/155/167: FAEIGARFL) was 3.8372 and the Log2FC ([3]; degron residues 146/147/149/150/152/153/154/155/167: FAEVGAKFL (AEVK)) was 3.9176 and 3.92 and 3.918. It also gave a Log2FC ([3]; degron residues 146/147/149/150/152/153/154/155/167: FAEVGARFL) of 3.9084, a Log2FC ([3]; degron residues 146/147/149/150/152/153/154/155/167: FAEVGASFL) of 3.8698 and a Log2FC ([3]; degron residues 146/147/149/150/152/153/154/155/167: FANQGASFL (ANQS)) of -0.98. For the same compound, the Log2FC ([3]; degron residues 146/147/149/150/152/153/154/155/167: FAPIGASFL (APIS)) was 3.73, the Log2FC ([3]; degron residues 146/147/149/150/152/153/154/155/167: FFDIGAPFL (FDIP)) was 3.9195 and 3.92 and 3.919 and the Log2FC ([3]; degron residues 146/147/149/150/152/153/154/155/167: FFEVGAPFL (FEVP)) was 3.9979 and 4.00 and 3.998. It also gave a Log2FC ([3]; degron residues 146/147/149/150/152/153/154/155/167: FFPIGAPFL) of 3.9164, a Log2FC ([3]; degron residues 146/147/149/150/152/153/154/155/167: FGEVGARFL) of 3.8587 and a Log2FC ([3]; degron residues 146/147/149/150/152/153/154/155/167: FGPIGACFL) of 3.9002. The Log2FC ([3]; degron residues 146/147/149/150/152/153/154/155/167: FGPVGACFL) was 3.8841, the Log2FC ([3]; degron residues 146/147/149/150/152/153/154/155/167: FGPVGAMFL) was 3.8585 and the Log2FC ([3]; degron residues 146/147/149/150/152/153/154/155/167: FHEIGAPFL (HEIP)) was 4.0013 and 4.00 and 4.001. The Log2FC ([3]; degron residues 146/147/149/150/152/153/154/155/167: FWEIGACFL) was 3.8152, the Log2FC ([3]; degron residues 146/147/149/150/152/153/154/155/167: FWEIGAKFL (WEIK)) was 3.9155 and 3.96 and 3.955 and the Log2FC ([3]; degron residues 146/147/149/150/152/153/154/155/167: FYEIGAKFL) was 3.9035. For the same compound, the Log2FC ([3]; degron residues 146/147/149/150/152/153/154/155/167: FYEIGAPFL) was 3.8608, the Log2FC ([3]; degron residues 146/147/149/150/152/153/154/155/167: FYEVGAAFL) was 3.8726 and the Log2FC ([3]; degron residues 146/147/149/150/152/153/154/155/167: FYNIGAPFL) was 3.8168. For the same compound, the Log2FC ([3]; degron residues 146/147/149/150/152/153/154/155/167: FYPIGAPFL) was 3.8626, the “degradation of endogenous IKZF1” value [4] was “did not induce degradation of endogenous IKZF1” and the “endogenous IKZF3 levels (Western blot)” value ([5]; transduced Jurkat cells) was “remained unaffected”. For the same compound, the “degradation of endogenous IKZF3 (Western blot)” value ([5]; untransduced Jurkat cells) was “do not induce degradation of endogenous IKZF3”, the “Selectivity (WT/mutant)” value ([6]; DC50(WT)/DC50(HEIP)) was 25 and 25.1 and the DC50 ([6]; HEIP, Jurkat, 18 h) was 30.2 nM. The pDC50 ([6]; HEIP, Jurkat, 18 h) was 7.52.
